Consider one molecule from patent US20100247606A1, “INTRAOCULAR SUSTAINED RELEASE DRUG DELIVERY SYSTEMS AND METHODS FOR TREATING OCULAR CONDITIONS” (ALLERGAN, INC., priority 2009, published 2010).

The subject of data set [1] is dog eye. The experiment in a line: Hyperemia and ocular tolerability after intraocular administration in Beagle dogs. In kind it is in vivo. How it is done:
Microspheres or implant containing an anti-hypertensive agent was injected in one eye and placebo microspheres or implant was injected in the other eye as a control. IOP and hyperemia were monitored for multiweek periods. Ultra thin wall 25-27 gauge needles were used. When microspheres were used they were suspended in vehicle at 10% or 20% by weight.

Data set [2] has as its system dog eye intraocular pressure (IOP). The experiment in a line: Percent change from baseline IOP after intraocular administration in Beagle dogs. In kind it is in vivo. Particulars: for IOP reduction maintained through: compared to fellow eye. How it is done:
Examples 3 to 7 below set forth in vivo (Beagle dogs) studies carried out by intraocular injection of microspheres or implant, suspended in aqueous vehicle (2% carboxy methylcellulose [CMC], 0.1% Tween 80 in 0.9% saline) or in a high viscosity, high shear rate gel (i.e. a suitable high molecular weight, polymeric hyaluronic acid). Microspheres or implant containing an anti-hypertensive agent was injected in one eye and placebo microspheres or implant was injected in the other eye as a control. IOP and hyperemia were monitored for multiweek periods. Ultra thin wall 25-27 gauge needles were used. When microspheres were used they were suspended in vehicle at 10% or 20% by weight.

The mark [3] stands for this setting: anterior intravitreal administration, dog.

With `CCCCC[C@H](O)c1ccc(N2C(=O)CC[C@@H]2COCc2ccc(C(=O)OC(C)C)s2)cc1` [Compound A, 5-{(R)-1-[4-((S)-1-Hydroxy-hexyl)-phenyl]-5-oxo-pyrrolidin-2-ylmethoxymethyl}-thiophene-2-carboxylic acid isopropyl ester], the conjunctival hyperemia entry in data set [1] (setting [3]) is recorded as “mild conjunctival hyperemia through day 3”. Moreover, the “ocular inflammation at follow up examinations” value in data set [1] (anterior vitreous injection) and in data set [1] (intracameral injection) was “no signs of ocular inflammation” throughout. The “subsequent conjunctival hyperemia recordings” value in data set [1] (intracameral, after the first day) is reported as 0. The “maximum conjunctival hyperemia score” value in data set [1] (intracameral, near the site of injection, first day) was “+0.5”. In addition, the tolerability result in data set [1] (neat injections in the anterior chamber and anterior vitreous) is reported as “well tolerated”. The “IOP reduction maintained through” value in data set [2] (50 microliter anterior vitreous injection) and in data set [2] (50 microliter intracameral injection) was 3 days each time. The “maximum IOP reduction from baseline” value in data set [2] (50 microliter intracameral injection, 0.1% in normal saline) is “about 50%”. Further, in data set [2] (setting [3]), the “maximum IOP reduction below baseline” value is on record as “about 30%”.
